Reference: patent US9000007B2, “5-benzylaminomethyl-6-aminopyrazolo [3, 4 -B] pyridine derivatives as cholesteryl ester-transfer protein (CETP) inhibitors useful for the treatment of atherosclerosis” (Dr. Reddy's Laboratories, Ltd., priority 2011, dated 2015)

Molecular target: T1, recombinant CETP enzyme (rCETP) (Homo sapiens, UniProt P11597)
T1 construct: purchased ROAR Biomedicals, USA
T1 sequence (P11597 18-493): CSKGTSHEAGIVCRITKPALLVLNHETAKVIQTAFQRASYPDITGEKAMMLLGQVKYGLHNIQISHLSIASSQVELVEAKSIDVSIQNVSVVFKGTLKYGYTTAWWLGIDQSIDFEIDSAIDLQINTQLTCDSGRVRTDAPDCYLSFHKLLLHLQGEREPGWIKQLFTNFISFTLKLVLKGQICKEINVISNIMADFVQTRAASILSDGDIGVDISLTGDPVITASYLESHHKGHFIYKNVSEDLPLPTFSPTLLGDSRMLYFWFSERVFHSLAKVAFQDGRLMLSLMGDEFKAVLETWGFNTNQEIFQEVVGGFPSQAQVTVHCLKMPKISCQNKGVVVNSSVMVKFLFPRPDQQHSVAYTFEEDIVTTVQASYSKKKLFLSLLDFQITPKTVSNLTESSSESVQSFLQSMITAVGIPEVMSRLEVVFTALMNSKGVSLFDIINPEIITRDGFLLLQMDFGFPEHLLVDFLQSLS
Test: In vitro CETP inhibition assay, fluorometric kit (ROAR Biomedicals)
Format: biochemical
Conditions: rCETP 50 ng, 37° C. for 90 minutes, fluorescence Ex 492 nm / Em 516 nm
Description: Determination of in Vitro CETP Activity Using Fluorometric Technique
An in vitro cholesteryl ester transfer protein inhibition (CETP) assay using a commercially available fluorometric assay kit from ROAR Biomedicals, USA was used to measure the CETP inhibition activity of the compounds of this application. This assay kit uses a donor molecule containing a fluorescent self-quenched neutral lipid that is transferred to an acceptor molecule in the presence of recombinant CETP enzyme (rCETP). The CETP-mediated transfer of the fluorescent neutral lipid to the acceptor molecule results in an increase in fluorescence (Excitation: 492 nm; Emission: 516 nm).
20 mM stock solutions of compounds were prepared in 100% DMSO and further dilutions were made such that the final concentration of DMSO in the reaction mix was 1%. […] The assay was performed in 96 well microplates and in each well, the reaction mixture contained 190 μl of assay buffer (150 mM NaCl, 10 mM Tris and 2 mM EDTA, pH-7.4), 4 μl of donor particle, 4 μl of acceptor particle, rCETP (50 ng) and 2 μl of test compound at varying final concentration of 0.1, 1, 10, 100, 1000 & 10000 nM. Two control reactions were performed, one without test compound (positive control) and the other without the rCETP (negative control). The reactions were incubated at 37° C. for 90 minutes and the reaction plate was transferred to a PCR machine MX3005P and the fluorescence units (FLU) were quantified (Excitation: 492 nm; Emission: 516 nm).
The negative control values were subtracted from the positive control as well as all the test values to correct for background fluorescence. The percentage inhibition of activity was calculated by using the following equation: % Inhibition of CETP activity=[100−(100×(FLU in test/FLU in positive control))].
The half maximal inhibitory concentration (IC50) was determined using the BIOGRAPH software (version no. 3.3).

Structure (SMILES) | IC50 [µM]
Cc1nn(C(C)(C)C)c2nc(N(CC3CC3)CC3CC3)c(CN(Cc3cc(C(F)(F)F)cc(C(F)(F)F)c3)c3ncc(NC(=O)C(C)C)cn3)cc12 [Example 1, N-(2-(((6-(bis(cyclopropylmethyl)amino)-1-(tert-butyl)-3-methyl-1H-pyrazolo[3,4-b]pyridin-5-yl)methyl)(3,5-bis(trifluoromethyl)benzyl)amino)pyrimidin-5-yl) isobutyramide] | 0.064
Cc1nn(C(C)(C)C)c2nc(N(CC3CC3)CC3CC3)c(CN(Cc3cc(C(F)(F)F)cc(C(F)(F)F)c3)c3ccc(C4CC4)cn3)cc12 [Example 2, 5-(((3,5-Bis(trifluoromethyl)benzyl)(5-cyclopropylpyridin-2-yl)amino)methyl)-1-(tert-butyl)-N,N-bis(cyclopropylmethyl)-3-methyl-1H-pyrazolo[3,4-b]pyridin-6-amine] | 0.078
Cc1nn(C(C)(C)C)c2nc(N(CC3CC3)CC3CC3)c(CN(Cc3cc(C(F)(F)F)cc(C(F)(F)F)c3)c3ncc(NC(=O)C4CC4)cn3)cc12 [Example 3, N-(2-(((6-(bis(cyclopropylmethyl)amino)-1-(tert-butyl)-3-methyl-1H-pyrazolo[3,4-b]pyridin-5-yl)methyl)(3,5-bis(trifluoromethyl)benzyl)amino)pyrimidin-5-yl)cyclopropanecarboxamide] | 0.035
CC(=O)c1cnc(N(Cc2cc(C(F)(F)F)cc(C(F)(F)F)c2)Cc2cc3c(C)nn(C)c3nc2N(CC2CC2)CC2CC2)nc1 [Example 4, 1-(2-(((6-(bis(cyclopropylmethyl)amino)-1,3-dimethyl-1H-pyrazolo[3,4-b]pyridin-5-yl)methyl)(3,5-bis(trifluoromethyl)benzyl)amino)pyrimidin-5-yl)ethanone] | 0.0057
CC(=O)c1cnc(N(Cc2cc(C(F)(F)F)cc(C(F)(F)F)c2)Cc2cc3c(C)nn(C(C)(C)C)c3nc2N(CC2CC2)CC2CC2)nc1 [Example 5, 1-(2-(((6-(bis(cyclopropylmethyl)amino)-1-(tert-butyl)-3-methyl-1H-pyrazolo[3,4-b]pyridin-5-yl)methyl)(3,5-bis(trifluoromethyl)benzyl)amino)pyrimidin-5-yl)ethanone] | 0.0415
Cc1nn(C(C)(C)C)c2nc(N(CC3CC3)CC3CC3)c(CN(Cc3cc(C(F)(F)F)cc(C(F)(F)F)c3)c3ncc(-c4ccon4)cn3)cc12 [Example 7] | 0.0094
Cc1nn(C(C)(C)C)c2nc(N(CC3CC3)CC3CC3)c(CN(Cc3cc(C(F)(F)F)cc(C(F)(F)F)c3)c3ncc(-c4cc[nH]n4)cn3)cc12 [Example 8, 5-(((5-(1H-pyrazol-3-yl)pyrimidin-2-yl)(3,5-bis(trifluoromethyl)benzyl)amino)methyl)-1-(tert-butyl)-N,N-bis(cyclopropylmethyl)-3-methyl-1H-pyrazolo[3,4-b]pyridin-6-amine] | 0.027
Cc1nn(C(C)(C)C)c2nc(N(CC3CC3)CC3CC3)c(CN(Cc3cc(C(F)(F)F)cc(C(F)(F)F)c3)c3ncc(-c4ccn(C)n4)cn3)cc12 [Example 9, 5-(((3,5-Bis(trifluoromethyl)benzyl)(5-(1-methyl-1H-pyrazol-3-yl)pyrimidin-2-yl)amino)methyl)-1-(tert-butyl)-N,N-bis(cyclopropylmethyl)-3-methyl-1H-pyrazolo[3,4-b]pyridin-6-amine] | 0.1
Cc1nn(C(C)(C)C)c2nc(N(CC3CC3)CC3CC3)c(CN(Cc3cc(C(F)(F)F)cc(C(F)(F)F)c3)c3ncc(C#N)cn3)cc12 [Example 10, 2-(((6-(bis(cyclopropylmethyl)amino)-1-(tert-butyl)-3-methyl-1H-pyrazolo[3,4-b]pyridin-5-yl)methyl)(3,5-bis(trifluoromethyl)benzyl)amino)pyrimidine-5-carbonitrile] | 1.25
Cc1nn(C(C)(C)C)c2nc(N(CC3CC3)CC3CC3)c(CN(Cc3cc(C(F)(F)F)cc(C(F)(F)F)c3)c3ncc(C(N)=O)cn3)cc12 [Example 11, 2-(((6-(bis(cyclopropylmethyl)amino)-1-(tert-butyl)-3-methyl-1H-pyrazolo[3,4-b]pyridin-5-yl)methyl)(3,5-bis(trifluoromethyl)benzyl)amino)pyrimidine-5-carboxamide] | 0.018
Cc1nn(C(C)(C)C)c2nc(N(CC3CC3)CC3CC3)c(CN(Cc3cc(C(F)(F)F)cc(C(F)(F)F)c3)c3ncc(C(=O)N(C)C)cn3)cc12 [Example 12, 2-(((6-(bis(cyclopropylmethyl)amino)-1-(tert-butyl)-3-methyl-1H-pyrazolo[3,4-b]pyridin-5-yl)methyl)(3,5-bis(trifluoromethyl)benzyl)amino)-N,N-dimethylpyrimidine-5-carboxamide] | 0.215
Cc1nn(C(C)(C)C)c2nc(N(CC3CC3)CC3CC3)c(CN(Cc3cc(C(F)(F)F)cc(C(F)(F)F)c3)c3ncc(N4CCOC4=O)cn3)cc12 [Example 13, 3-(2-(((6-(bis(cyclopropylmethyl)amino)-1-(tert-butyl)-3-methyl-1H-pyrazolo[3,4-b]pyridin-5-yl)methyl)(3,5-bis(trifluoromethyl)benzyl)amino)pyrimidin-5-yl)oxazolidin-2-one] | 0.01
Cc1nn(C(C)(C)C)c2nc(N(CC3CC3)CC3CC3)c(CN(Cc3cc(C(F)(F)F)cc(C(F)(F)F)c3)c3ncc(N4CCOCC4)cn3)cc12 [Example 14, 5-(((3,5-Bis(trifluoromethyl)benzyl)(5-morpholinopyrimidin-2-yl)amino)methyl)-1-(tert-butyl)-N,N-bis(cyclopropylmethyl)-3-methyl-1H-pyrazolo[3,4-b]pyridin-6-amine] | 0.046
Cc1nn(C)c2nc(N(CC3CC3)CC3CC3)c(CN(Cc3cc(C(F)(F)F)cc(C(F)(F)F)c3)c3ncc(N4CCOCC4)cn3)cc12 [Example 15, 5-(((3,5-bis(trifluoromethyl)benzyl)(5-morpholinopyrimidin-2-yl)amino)methyl)-N,N-bis(cyclopropylmethyl)-1,3-dimethyl-1H-pyrazolo[3,4-b]pyridin-6-amine] | 0.049
Cc1nn(C(C)(C)C)c2nc(N(CC3CC3)CC3CC3)c(CN(Cc3cc(C(F)(F)F)cc(C(F)(F)F)c3)c3ncc(N4CCCC4=O)cn3)cc12 [Example 16, 1-(2-(((6-(Bis(cyclopropylmethyl)amino)-1-(tert-butyl)-3-methyl-1H-pyrazolo[3,4-b]pyridin-5-yl)methyl)(3,5-bis(trifluoromethyl)benzyl)amino)pyrimidin-5-yl)pyrrolidin-2-one] | 0.056
Cc1nc(N(Cc2cc(C(F)(F)F)cc(C(F)(F)F)c2)Cc2cc3c(C)nn(C(C)(C)C)c3nc2N(CC2CC2)CC2CC2)ncc1C(=O)O [Example 18, 2-(((6-(Bis(cyclopropylmethyl)amino)-1-(tert-butyl)-3-methyl-1H-pyrazolo[3,4-b]pyridin-5-yl)methyl)(3,5-bis(trifluoromethyl)benzyl)amino)-4-methylpyrimidine-5-carboxylic acid] | 0.054
CCOC(=O)c1cnc(N(Cc2cc(C(F)(F)F)cc(C(F)(F)F)c2)Cc2cc3c(C)nn(C(C)(C)C)c3nc2N(CC2CC2)CC2CC2)nc1 [Example 19, Ethyl 2-(((6-(bis(cyclopropylmethyl)amino)-1-(tert-butyl)-3-methyl-1H-pyrazolo[3,4-b]pyridin-5-yl)methyl)(3,5-bis(trifluoromethyl)benzyl)amino)pyrimidine-5-carboxylate] | 0.07
Cc1nn(C(C)(C)C)c2nc(N(CC3CC3)CC3CC3)c(CN(Cc3cc(C(F)(F)F)cc(C(F)(F)F)c3)c3ncc(C(=O)O)cn3)cc12 [Example 20, 2-(((6-(Bis(cyclopropylmethyl)amino)-1-(tert-butyl)-3-methyl-1H-pyrazolo[3,4-b]pyridin-5-yl)methyl)(3,5-bis(trifluoromethyl)benzyl)amino)pyrimidine-5-carboxylic acid] | 0.061
